Measurements published in US20030232868A1, “Cyclic carboxylic acids as integrin antagonists” (priority 2000, published 2003).
pIC50: −log10 of the molar value.

Columns and labels:
[1] = system: adhesion of Ramos cells to VCAM-1; experiment: Adhesion of Ramos cells to immobilized VCAM-1 (domains 1-3) (Ramos—VCAM-1 assay); assay type: cell-based; conditions: Homo sapiens, Ramos, 1 h
Excerpt: (§1) In Vitro Assay: Adhesion of Jurkat/Ramos Cells to Immobilized VCAM-1 (Domains 1-3)
(§2) Preparation of VCAM-1 (Extracellular Domains 1-3)
(§3) Complementary DNA (cDNA) encoding 7 domain form of VCAM-1 (GenBank accession #M60335) was obtained using Rapid-Screen™ cDNA library panels (OriGene Technologies, Inc) at Takara Gene Analysis Center (Shiga, Japan). The primers used were 5′-CCAAGGCAGAGTACGCAAAC-3′ (sense) and 5′-TGGCAGGTATTATTAAGGAG-3′ (antisense). PCR amplification of the 3 domain VCAM-1 cDNA was perform using Pfu DNA polymerase (Stratagene) with the following sets of primers: (U-VCAMd1-3) 5′-CCATATGGTACCTGATCAATTTAAAATCGAGACCACCCCAGAA-3′; (L-VCAMd1-3) 5′-CCATATAGCAATCCTAGGTCCAGGGGAGATCTCAACAGTAAA-3′. PCR cycle was 94° C. for 45 sec. 55° C. for 45 sec, 72° C. for 2 min, repeating 15 cycles. After the purification of the PCR product, the fragment was digested with KpnI-AvrII. The digested fragment was ligated into pBluescript IISK(−) (Strategene), which was linearized by digesting with KpnI-XhoI. The ligation was followed by transformation to a Dam/Dcm methylase-free E. coli strain SCS110 (Strategene) to create the donor plasmid pHH7. To direct VCAM-1 molecule into the insect cell secretory pathway, the VCAM-1 coding sequence was fused to signal peptide sequence of honeybee melittin. The resulting melittin-VCAM fusion was placed in correct orientation to the baculovirus polyhedrin promoter. Baculovirus transfer vector containing first 3-domain form VCAM-1 (pH 10) was constructed by ligation of 0.9 kb fragment from AvrII/Klenow/BclI digests of pH 7 into SalI/Klenow/BamHI digests of pMelBacB Invitrogen). Recombinant baculovirus was generated by using Bac-N-Blue™ Transfection kit (Invitrogen) according to the manufacture's instruction. The recombinant virus was amplified by infection to High-Five™ insect cells for 5-6 days, and virus titer was determined by plaque assay.
(§4) High-Five™ insect cells were pelleted in a 225 ml conical tube by centrifugation at 1000 rpm for 5 min. After discarding the supernatant, the pellet was resuspended in 1.5×10^9 pfu (MOI=5) of high-titer virus solution, followed by incubation for 1.5 hours at room temperature. The cells were pelleted again and washed once in fresh Express Five™ serum free medium. The cells were pelleted again and finally, resuspended in 200 ml of fresh Express Five TM medium, transferred to a 1,000 ml shaker flask, and incubated in a shaker at 27° C., 130 rpm, for 48 hours before the culture supernatant was collected. The purification of 3-domain form of VCAM-1 from the culture supernatant was performed by one-step anion exchange chromatography. Protein concentration was determined by using Coomassie protein assay reagent (Pierce) according to the manufacture's instruction.
(§5) Preparation of VCAM-1 Coated Microtiter Plates
(§6) Recombinant human VCAM-1 (extracellular domains 1-3) was dissolved at 1.0 μg/1 ml in PBS. Each well of the microtiter plates (Nalge Nunc International, Fluoro-nunc Cert, 437958) was coated with 100 μl of substrate or for background control with buffer alone for 15 hours at 4 C. After discarding the substrate solution, the wells were blocked using 150 μl per well of block solution Kirkegaard Perry Laboratories, 50-61-01) for 90 minutes. The plate was washed with wash buffer containing 24 mM Tris-HCl (pH 7.4), 137 mM NaCl, […] and 2 MM MnCl2 just before addition of the assay.
In Vitro Assay using Ramos Cells
Preparation of Fluorescence Labeled Ramos Cells:
(§7) Ramos cells (American Type Culture Collection, Clone CRL-1596) were cultured in RPMI 1640 medium (Nikken Bio Medical Laboratory, CM1101) supplemented with 10% fetal bovine serum (Hyclone, A-1119-L), 100 U/ml penicilin (Gibco BRL, 15140-122) and 100 μg/ml streptomycin (Gibco BRL, 15140-122) in a humidified incubator at 37° C. with 5% CO2. […]

[2] = system: adhesion of Jurkat cells to VCAM-1; experiment: Adhesion of Jurkat cells to immobilized VCAM-1 (domains 1-3) (Jurkat—VCAM-1 assay); assay type: cell-based, human; conditions: for pIC50: Homo sapiens, Jurkat, 1 h
Excerpt: as §1, §2, §3, §4, §5, §6
In Vitro Assay using Jurkat Cells
Preparation of Fluorescence Labeled Jurkat Cells:
as §7, with “Jurkat” for “Ramos”, “E6-1, ATCC TIB-152)” for “CRL-1596)”, “RPM” for “RPMI”

SMILES	melting point	pIC50 [1]	pIC50 [2]	IC50 ([2]; Cell Type Jurkat, adhesion to VCAM-1 coated plates, 1 hour at 37 C, IC50 value ranges)
CCOC(=O)c1ccc(NC(=O)[C@H](CC(C)C)NC(=O)Cc2ccc(NC(=O)Nc3ccccc3C)cc2)c(Cl)c1 [Example 21]	163 to 165 °C			
CCOC(=O)c1ccc(NC(=O)[C@H](CC(C)C)NC(=O)Cc2ccc(NC(=O)Nc3ccccc3C)cc2)c(OC)c1 [Example 22]	139 to 141 °C			
COC(=O)c1cc(Cl)c(NC(=O)[C@H](CC(C)C)NC(=O)Cc2ccc(NC(=O)Nc3ccccc3C)cc2)cc1Cl [Example 26]	204 to 205 °C			
Cc1ccccc1NC(=O)Nc1ccc(CC(=O)N[C@@H](CC(C)C)C(=O)Nc2ccc(-c3nnn[nH]3)cc2)cc1 [Example 27]	255 to 257 °C	5.00 to 5.70		
CCOC(=O)C(c1ccc(NC(=O)[C@H](CC(C)C)NC(=O)Cc2ccc(NC(=O)Nc3ccccc3C)cc2)cc1)C1CCCC1 (some centres unmarked) [Example 30]	186 to 189 °C			
CCOC(=O)Cc1csc(N(C)C(=O)[C@H](CC(C)C)NC(=O)Cc2ccc(NC(=O)Nc3ccccc3C)cc2)n1 [Example 33]	125 to 130 °C			
Cc1ccccc1NC(=O)Nc1ccc(CC(=O)N[C@@H](CCCCNC(=O)OCc2ccccc2)C(=O)Nc2ccc(C(=O)OCc3ccccc3)cc2)cc1 [Example 35]	188 to 189 °C			
COCCCN(CC(=O)Nc1ccc(C(=O)OC)cc1)C(=O)Cc1ccc(NC(=O)Nc2ccccc2C)cc1 [Example 36]	197 to 198 °C			
Cc1ccccc1NC(=O)Nc1ccc(CC(=O)N[C@@H](CC(C)C)C(=O)Nc2ccccc2CC(=O)O)cc1 [Example 42]	186 to 190 °C		< 5.00	
Cc1ccccc1NC(=O)Nc1ccc(CC(=O)N[C@@H](CC(C)C)C(=O)Nc2ccc(C(=O)O)cc2Cl)cc1 [Example 45]	154 to 158 °C			A-B
COc1cc(C(=O)O)ccc1NC(=O)[C@H](CC(C)C)NC(=O)Cc1ccc(NC(=O)Nc2ccccc2C)cc1 [Example 46]	138 to 142 °C	< 5.00		
Cc1ccccc1NC(=O)Nc1ccc(CC(=O)N[C@@H](CC(C)C)C(=O)Nc2cc(Cl)c(C(=O)O)cc2Cl)cc1 [Example 50]	185 to 188 °C	5.00 to 5.70		
Cc1ccccc1NC(=O)Nc1ccc(CC(=O)N[C@@H](CC(C)C)C(=O)Nc2cc(C(=O)O)cc([N+](=O)[O-])c2)cc1 [Example 51]	188 to 190 °C	5.00 to 5.70		
Cc1ccccc1NC(=O)Nc1ccc(CC(=O)N[C@@H](CC(C)C)C(=O)N2CCCc3cc(C(=O)O)ccc32)cc1 [Example 52]		5.00 to 5.70		
Cc1ccccc1NC(=O)Nc1ccc(CC(=O)N[C@@H](CC(C)C)C(=O)Nc2ccc(C(C(=O)O)C3CCCC3)cc2)cc1 (some centres unmarked) [Example 53]	206 to 208 °C		5.00 to 5.70	
Cc1ccccc1NC(=O)Nc1ccc(CC(=O)N[C@@H](CC(C)C)C(=O)Nc2nc(CC(=O)O)cs2)cc1 [Example 54]	178 to 180 °C		5.00 to 5.70	
Cc1ccccc1NC(=O)Nc1ccc(CC(=O)N[C@@H](CC(C)C)C(=O)Nc2nnc(CC(=O)O)s2)cc1 [Example 55]	187 to 189 °C		5.00 to 5.70	
Cc1ccccc1NC(=O)Nc1ccc(CC(=O)N[C@@H](CC(C)C)C(=O)N(C)c2nc(CC(=O)O)cs2)cc1 [Example 56]	172 to 174 °C	< 5.00		
Cc1ccccc1NC(=O)Nc1ccc(CC(=O)N[C@@H](CC(C)C)C(=O)Nc2ccc3[nH]c(C(=O)O)cc3c2)cc1 [Example 57]			< 5.00	
Cc1ccccc1NC(=O)Nc1ccc(CC(=O)N[C@@H](CC(C)C)C(=O)NC2CCC(C(=O)O)CC2)cc1 (some centres unmarked) [Example 60]	175 °C (dec.)		5.00 to 5.70	
Cc1ccccc1NC(=O)Nc1ccc(CC(=O)N[C@@H](CC(C)C)C(=O)NC2CCCCC2C(=O)O)cc1 (some centres unmarked) [Example 61]		5.00 to 5.70		

Other lines, results leading:

melting point	pIC50 [1]	pIC50 [2]	IC50 ([2]; Cell Type Jurkat, adhesion to VCAM-1 coated plates, 1 hour at 37 C, IC50 value ranges)	SMILES
170 °C				COC(=O)c1ccccc1NC(=O)[C@H](CC(C)C)NC(=O)Cc1ccc(NC(=O)Nc2ccccc2C)cc1 [Example 15]
220 °C				COC(=O)c1cccc(NC(=O)[C@H](CC(C)C)NC(=O)Cc2ccc(NC(=O)Nc3ccccc3C)cc2)c1 [Example 16]
250 to 252 °C				COC(=O)c1ccc(NC(=O)[C@H](CC(C)C)NC(=O)Cc2ccc(NC(=O)Nc3ccccc3C)cc2)cc1 [Example 17, Methyl 4-([({4-[(2-toluidinocarbonyl)amino]phenyl}acetyl)L-leucin]amino)benzoate]
218 °C				COC(=O)Cc1ccccc1NC(=O)[C@H](CC(C)C)NC(=O)Cc1ccc(NC(=O)Nc2ccccc2C)cc1 [Example 18]
200 °C				COC(=O)Cc1cccc(NC(=O)[C@H](CC(C)C)NC(=O)Cc2ccc(NC(=O)Nc3ccccc3C)cc2)c1 [Example 19]
222 °C				COC(=O)Cc1ccc(NC(=O)[C@H](CC(C)C)NC(=O)Cc2ccc(NC(=O)Nc3ccccc3C)cc2)cc1 [Example 20]
205 to 206 °C				COC(=O)c1ccc(NC(=O)[C@H](CC(C)C)NC(=O)Cc2ccc(NC(=O)Nc3ccccc3C)cc2)cc1Nc1ccccc1 [Example 24]
191 to 195 °C				COC(=O)c1ccc(NC(=O)[C@H](CC(C)C)NC(=O)Cc2ccc(NC(=O)Nc3ccccc3C)cc2)cc1Oc1ccccc1 [Example 25]
190 °C		< 5.00		Cc1ccccc1NC(=O)Nc1ccc(CC(=O)N[C@@H](CC(C)C)C(=O)Nc2ccccc2C(=O)O)cc1 [Example 39]
220 °C		< 5.00		Cc1ccccc1NC(=O)Nc1ccc(CC(=O)N[C@@H](CC(C)C)C(=O)Nc2cccc(C(=O)O)c2)cc1 [Example 40]
219 to 223 °C		> 6.30		Cc1ccccc1NC(=O)Nc1ccc(CC(=O)N[C@@H](CC(C)C)C(=O)Nc2ccc(C(=O)O)cc2)cc1 [Example 41]
178 to 181 °C		5.70 to 6.30		Cc1ccccc1NC(=O)Nc1ccc(CC(=O)N[C@@H](CC(C)C)C(=O)Nc2cccc(CC(=O)O)c2)cc1 [Example 43]
206 °C		5.00 to 5.70		Cc1ccccc1NC(=O)Nc1ccc(CC(=O)N[C@@H](CC(C)C)C(=O)Nc2ccc(CC(=O)O)cc2)cc1 [Example 44]
178 to 180 °C	> 6.30			Cc1ccccc1NC(=O)Nc1ccc(CC(=O)N[C@@H](CC(C)C)C(=O)Nc2ccc(C(=O)O)c(Cl)c2)cc1 [Example 47]
164 to 169 °C	> 6.30			Cc1ccccc1NC(=O)Nc1ccc(CC(=O)N[C@@H](CC(C)C)C(=O)Nc2ccc(C(=O)O)c(Nc3ccccc3)c2)cc1 [Example 48]
158 to 160 °C	> 6.30			Cc1ccccc1NC(=O)Nc1ccc(CC(=O)N[C@@H](CC(C)C)C(=O)Nc2ccc(C(=O)O)c(Oc3ccccc3)c2)cc1 [Example 49]
